Reference: PubChem BioAssay AID1918999 (Molecular Pharmacology Branch, DTP, NCI, 2023)
Values joined by “and” are separate entries in the source; they are usually repeats but may differ in a detail not shown here. Equal entries are not always repeated. Each block holds one compound with its values, some of them ahead of it.

System: 556581-035-R-J1-PDC complex spheroid growth
Assay: Anticancer human tumor 556581-035-R-J1-PDC patient-derived ovarian carcinoma cell line growth inhibition [AhR]
Conditions: for viability, T/C: stronger effect = lower value
Excerpt: Multicellular complex tumor spheroid response to aryl hydrocarbon receptor antagonists in combination with a variety of drugs and investigational agents in selected tumor cell lines
The current study was undertaken to assess response to aryl hydrocarbon receptor antagonists in combination with standard-of-care drugs and investigational agents in solid tumor complex spheroid models. Complex spheroids include a stromal component modeled by human endothelial cells (HUVEC) and fibroblasts modeled by human mesenchymal stem cells (MSCs). The concentration ranges selected for each drug and investigational agent were based upon clinically achievable concentrations if the clinical Cmax of the agent was known.
Compounds. The drugs and investigational agents: BAY 2416964 (NSC825713), GNF351 (NSC835774), CH-223191 (NSC835775), CPI-455 (NSC825282), aza-TdCyd (NSC777586), decitabine (NSC127716), belinostat (NSC758774), entinostat (NSC756642), pevonedistat (NSC761192), tazemetostat (NSC777109), talazoparib (NSC765396), olaparib (NSC753686), selinexor (NSC780203), nedisertib (M3814, NSC802822), bortezomib (NSC756655), venetoclax (NSC766270), doxorubicin (NSC123127), elimusertib (BAY189344, NSC800525), ceralasertib (AZD6738, NSC777638), TAK-243 (NSC785004), alisertib (NSC759677), etoposide (NSC141540), topotecan (NSC609699), eribulin (NSC707389), gemcitabine (NSC613327), carboplatin (NSC241240), cisplatin (NSC119875), and SN-38 (NSC673596) were obtained from the National Cancer Institute (NCI) Developmental Therapeutics Program Chemical Repository (32). The FDA-approved anticancer drug set is available from the Developmental Therapeutics Program at https://dtp.cancer.gov/organization/dscb/obtaining/available plates.htm. […] The stock solutions were prepared in dimethyl sulfoxide (DMSO, Sigma-Aldrich, St. Louis, MO, cat. D2650), except for the platinum compounds which were prepared in saline (Quality Biological, Gaithersburg, MD, cat. 114-055-101), at 800-fold the tested concentration and stored at -70 degrees C prior to their use. All drugs and investigational agents were tested over a range starting from a high concentration at or near the clinical Cmax and decreasing in half-log increments. If the clinical Cmax for an agent had not been determined, the highest concentration tested was 10 microM (Table 1).
Cell Culture. All cells were maintained in an incubator at 37 degrees C and 5% CO2 with 95% humidity. The PDC lines were cultured according to standard operating procedures established by the NCI PDMR (https://pdmr.cancer.gov). Briefly, all PDCs were thawed and cultured in Matrigel-coated flasks prepared with a working solution of 1X Ham's F-12 nutrient mix, without supplementation (Invitrogen, Waltham, MA, cat. 11765054), 100 U/mL penicillin-streptomycin (Invitrogen, cat. 15140122), and 2.5% Matrigel (Corning Inc., Corning, NY, cat. 354248) for the first three passages. All PDCs were cultured in complete DMEM/F-12 media containing advanced DMEM/F-12 (Invitrogen, cat. 12634028), 4.9% defined fetal bovine serum, heat inactivated (HyClone Laboratories Inc., Logan, UT, cat. SH30070.03HI), 389 ng/mL hydrocortisone (Sigma-Aldrich, cat. H4001), 9.7 ng/mL human EGF recombinant protein (Invitrogen, cat. PHG0313), 23.4 microg/mL adenine (Sigma-Aldrich, cat. A2786), 97.3 U/mL penicillin-streptomycin (Invitrogen, cat. 15140122), 1.9 mM L-glutamine (Invitrogen, cat. 25030081), and 9.7 microM Y-27632 dihydrochloride (Tocris Bioscience, Bristol, United Kingdom, cat. 1254). The PDCs were cultured in complete DMEM/F12 media without 10 microM Y-27632 dihydrochloride for at least two passages prior to the screen. The established cell lines NCI-H1341 and […] were cultured in DMEM/F-12, HEPES (Invitrogen, cat. 11330032), 5% defined fetal bovine serum (HyClone Laboratories Inc., cat. SH30070.03), ITS premix universal culture supplement [insulin (5 microg/mL), transferrin (5 microg/mL), and selenious acid (5 ng/mL)] […]

[1] = curve of first compound, second compound 0.1 µM
[2] = curve of first compound, second compound 0.316 µM
[3] = curve of first compound, second compound 1 µM
[4] = curve of first compound, second compound 3.16 µM
[5] = curve of first compound, second compound 10 µM
[6] = second compound 0.1 µM, first compound 0.0316 µM
[7] = second compound 0.1 µM, first compound 0.1 µM
[8] = second compound 0.1 µM, first compound 0.316 µM
[9] = second compound 0.1 µM, first compound 1 µM
[10] = second compound 0.1 µM, first compound 3.16 µM
[11] = second compound 0.1 µM, first compound 10 µM
[12] = second compound 0.316 µM, first compound 0.0316 µM
[13] = second compound 0.316 µM, first compound 0.1 µM
[14] = second compound 0.316 µM, first compound 0.316 µM
[15] = second compound 0.316 µM, first compound 1 µM
[16] = second compound 0.316 µM, first compound 3.16 µM
[17] = second compound 0.316 µM, first compound 10 µM
[18] = second compound 1 µM, first compound 0.0316 µM
[19] = second compound 1 µM, first compound 0.1 µM
[20] = second compound 1 µM, first compound 0.316 µM
[21] = second compound 1 µM, first compound 1 µM
[22] = second compound 1 µM, first compound 3.16 µM
[23] = second compound 1 µM, first compound 10 µM
[24] = second compound 3.16 µM, first compound 0.0316 µM
[25] = second compound 3.16 µM, first compound 0.1 µM
[26] = second compound 3.16 µM, first compound 0.316 µM
[27] = second compound 3.16 µM, first compound 1 µM
[28] = second compound 3.16 µM, first compound 3.16 µM
[29] = second compound 3.16 µM, first compound 10 µM
[30] = second compound 10 µM, first compound 0.0316 µM
[31] = second compound 10 µM, first compound 0.1 µM
[32] = second compound 10 µM, first compound 0.316 µM
[33] = second compound 10 µM, first compound 1 µM
[34] = second compound 10 µM, first compound 3.16 µM
[35] = second compound 10 µM, first compound 10 µM
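For viability, T/C in this document: compound exposure lasted 7 days; 100% = DMSO vehicle control growth.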

- IC50 [1]: 1180 nM
- IC50 [2]: 1280 nM
- IC50 [3]: 1470 nM
- IC50 [4]: 1190 nM
- IC50 [5]: 1080 nM
SMILES: O=C(C=Cc1cccc(S(=O)(=O)Nc2ccccc2)c1)NO + CC(CO)NC(=O)c1cc(-c2ccc(Cl)cc2)nn(-c2cnn(C)c2)c1=O
- viability, T/C [6]: 96.6%
- viability, T/C [7]: 88.9%
- viability, T/C [8]: 75.1%
- viability, T/C [9]: 53.6%
- viability, T/C [10]: 27.9%
- viability, T/C [11]: 3.75%
- viability, T/C [12]: 94%
- viability, T/C [13]: 91.2%
- viability, T/C [14]: 80.6%
- viability, T/C [15]: 56.2%
- viability, T/C [16]: 25.7%
- viability, T/C [17]: 3.23%
- viability, T/C [18]: 105%
- viability, T/C [19]: 96.8%
- viability, T/C [20]: 88%
- viability, T/C [21]: 63.6%
- viability, T/C [22]: 24.9%
- viability, T/C [23]: 2.84%
- viability, T/C [24]: 98.7%
- viability, T/C [25]: 93.7%
- viability, T/C [26]: 74.1%
- viability, T/C [27]: 54.1%
- viability, T/C [28]: 28.1%
- viability, T/C [29]: 3.83%
- viability, T/C [30]: 105%
- viability, T/C [31]: 104%
- viability, T/C [32]: 75.8%
- viability, T/C [33]: 53%
- viability, T/C [34]: 24.3%
- viability, T/C [35]: 4.22%

- IC50 [1]: 5.78 nM
- IC50 [2]: 5.73 nM
- IC50 [3]: 5.9 nM
- IC50 [4]: 5.64 nM
- IC50 [5]: 5.97 nM
SMILES: CC(C)CC(NC(=O)C(Cc1ccccc1)NC(=O)c1cnccn1)B(O)O (configuration not stated) + Cc1ccccc1N=Nc1ccc(NC(=O)c2ccnn2C)c(C)c1
- viability, T/C (second compound 0.1 µM, first compound 0.000949 µM): 91.6%
- viability, T/C (second compound 0.1 µM, first compound 0.003 µM): 117%
- viability, T/C (second compound 0.1 µM, first compound 0.00949 µM): 8.91%
- viability, T/C (second compound 0.1 µM, first compound 0.03 µM): 0.21%
- viability, T/C (second compound 0.1 µM, first compound 0.0949 µM): 0.17%
- viability, T/C (second compound 0.1 µM, first compound 0.3 µM): 0.27%
- viability, T/C (second compound 0.316 µM, first compound 0.000949 µM): 97.2%
- viability, T/C (second compound 0.316 µM, first compound 0.003 µM): 105%
- viability, T/C (second compound 0.316 µM, first compound 0.00949 µM): 10.2%
- viability, T/C (second compound 0.316 µM, first compound 0.03 µM): 0.34%
- viability, T/C (second compound 0.316 µM, first compound 0.0949 µM): 0.22%
- viability, T/C (second compound 0.316 µM, first compound 0.3 µM): 0.22%
- viability, T/C (second compound 1 µM, first compound 0.000949 µM): 90.2%
- viability, T/C (second compound 1 µM, first compound 0.003 µM): 115%
- viability, T/C (second compound 1 µM, first compound 0.00949 µM): 13.2%
- viability, T/C (second compound 1 µM, first compound 0.03 µM): 0.19%
- viability, T/C (second compound 1 µM, first compound 0.0949 µM): 0.16%
- viability, T/C (second compound 1 µM, first compound 0.3 µM): 0.26%
- viability, T/C (second compound 3.16 µM, first compound 0.000949 µM): 88.2%
- viability, T/C (second compound 3.16 µM, first compound 0.003 µM): 100%
- viability, T/C (second compound 3.16 µM, first compound 0.00949 µM): 13.6%
- viability, T/C (second compound 3.16 µM, first compound 0.03 µM): 0.16%
- viability, T/C (second compound 3.16 µM, first compound 0.0949 µM): 0.17%
- viability, T/C (second compound 3.16 µM, first compound 0.3 µM): 0.22%
- viability, T/C (second compound 10 µM, first compound 0.000949 µM): 82.3%
- viability, T/C (second compound 10 µM, first compound 0.003 µM): 89.1%
- viability, T/C (second compound 10 µM, first compound 0.00949 µM): 25.9%
- viability, T/C (second compound 10 µM, first compound 0.03 µM): 0.35%
- viability, T/C (second compound 10 µM, first compound 0.0949 µM): 0.31%
- viability, T/C (second compound 10 µM, first compound 0.3 µM): 0.28%

- IC50 [1]: > 10000 nM
- IC50 [2]: > 10000 nM
- IC50 [3]: > 10000 nM
- IC50 [4]: > 10000 nM
- IC50 [5]: > 10000 nM
SMILES: NS(=O)(=O)OCC1CC(n2ccc3c(NC4CCc5ccccc54)ncnc32)CC1O (configuration not stated) + Cc1ccccc1N=Nc1ccc(NC(=O)c2ccnn2C)c(C)c1
- viability, T/C [6]: 101%
- viability, T/C [7]: 103%
- viability, T/C [8]: 103%
- viability, T/C [9]: 108%
- viability, T/C [10]: 106%
- viability, T/C [11]: 82.2%
- viability, T/C [12]: 105%
- viability, T/C [13]: 104%
- viability, T/C [14]: 97.2%
- viability, T/C [15]: 103%
- viability, T/C [16]: 93.9%
- viability, T/C [17]: 80.2%
- viability, T/C [18]: 92.9%
- viability, T/C [19]: 102%
- viability, T/C [20]: 101%
- viability, T/C [21]: 101%
- viability, T/C [22]: 95.7%
- viability, T/C [23]: 79.7%
- viability, T/C [24]: 97.1%
- viability, T/C [25]: 96.5%
- viability, T/C [26]: 89.3%
- viability, T/C [27]: 89.7%
- viability, T/C [28]: 88.8%
- viability, T/C [29]: 73.3%
- viability, T/C [30]: 91.3%
- viability, T/C [31]: 80%
- viability, T/C [32]: 89.8%
- viability, T/C [33]: 88.2%
- viability, T/C [34]: 83.6%
- viability, T/C [35]: 69.6%

- IC50 (curve of compound): < 31.6 nM
SMILES: Nc1ccn(C2OC(CO)C(O)C2(F)F)c(=O)n1 (configuration not stated)
- viability, T/C (compound 0.0316 µM): 32.3% and 35% and 33.6%
- viability, T/C (compound 0.1 µM): 38.3% and 35.4% and 37.6%
- viability, T/C (compound 0.316 µM): 32.6% and 36.3% and 46.9%
- viability, T/C (compound 1 µM): 37.1% and 36.9% and 40.4%
- viability, T/C (compound 3.16 µM): 39.2% and 35.1% and 36.5%
- viability, T/C (compound 10 µM): 31.2% and 31.4% and 32.4%
